This note sets out measurements from article PMC12073402, “A Selective MAP3K1 Inhibitor Facilitates Discovery of NPM1 as a Member of the Network” (Molecules, 2025).

Common to all, as to test: KiNativ kinome profiling in PANC-1 lysate
Common to all, as to format: binding

One test concerns the target T1, MLK4 (Homo sapiens, UniProt Q5TCX8).
T1 construct: endogenous in cells; host or cells: PANC-1
The settings on record: Lys2. Put shortly:
(§1)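 PANC-1 lysates were incubated with 5 μM inhibitor or DMSO, then labeled with a desthiobiotin-ATP acyl-phosphate probe that biotinylates conserved kinase lysines. Tryptic peptides were streptavidin-enriched and quantified by LC-MS/MS, reported as % change in MS signal from duplicate treated and duplicate control samples.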

For the next test, the target named is T2, MAST4 (Homo sapiens, UniProt O15021).
T2 construct: endogenous in cells; host or cells: PANC-1
The settings on record: Lys2. Put shortly:
as §1

The next test has as its target T3, PKR (Homo sapiens, UniProt P19525).
T3 construct: endogenous in cells; host or cells: PANC-1 cell lysate
Put shortly: as §1

A further test deals with T4, PCTAIRE2 (Homo sapiens, UniProt Q00537).
T4 construct: endogenous in cells; host or cells: PANC-1 cell lysate
The settings on record: Lys2. The method, boiled down:
as §1

The target in the next test is T5, AurA (Homo sapiens, UniProt O14965).
T5 construct: endogenous in cells; host or cells: PANC-1 cell lysate
Put shortly: as §1

Another test has as its target T6, RSK3 domain1 (Homo sapiens, UniProt Q15349).
T6 construct: endogenous in cells; host or cells: PANC-1 cell lysate
The settings on record: Lys2. The method, boiled down:
as §1

For a further test, the target named is T7, CDC2 (Homo sapiens, UniProt P06493).
T7 construct: endogenous in cells; host or cells: PANC-1 cell lysate
The method, boiled down: as §1

The subject of the next test is PKD1, PKD2. The note with it: 5 µM; Lys2; NIVHCDLKPENVLLASADPFPQVK
Put shortly: as §1

For a further test, the system named is MER, TYRO3. The note with it: 5 µM; ATP Loop; KIYSGDYYR
Put shortly: as §1

In another test the target is T8, NEK9 (Homo sapiens, UniProt Q8TD19).
T8 construct: endogenous in cells; host or cells: PANC-1 cell lysate
T8 sequence (Q8TD19 1-979): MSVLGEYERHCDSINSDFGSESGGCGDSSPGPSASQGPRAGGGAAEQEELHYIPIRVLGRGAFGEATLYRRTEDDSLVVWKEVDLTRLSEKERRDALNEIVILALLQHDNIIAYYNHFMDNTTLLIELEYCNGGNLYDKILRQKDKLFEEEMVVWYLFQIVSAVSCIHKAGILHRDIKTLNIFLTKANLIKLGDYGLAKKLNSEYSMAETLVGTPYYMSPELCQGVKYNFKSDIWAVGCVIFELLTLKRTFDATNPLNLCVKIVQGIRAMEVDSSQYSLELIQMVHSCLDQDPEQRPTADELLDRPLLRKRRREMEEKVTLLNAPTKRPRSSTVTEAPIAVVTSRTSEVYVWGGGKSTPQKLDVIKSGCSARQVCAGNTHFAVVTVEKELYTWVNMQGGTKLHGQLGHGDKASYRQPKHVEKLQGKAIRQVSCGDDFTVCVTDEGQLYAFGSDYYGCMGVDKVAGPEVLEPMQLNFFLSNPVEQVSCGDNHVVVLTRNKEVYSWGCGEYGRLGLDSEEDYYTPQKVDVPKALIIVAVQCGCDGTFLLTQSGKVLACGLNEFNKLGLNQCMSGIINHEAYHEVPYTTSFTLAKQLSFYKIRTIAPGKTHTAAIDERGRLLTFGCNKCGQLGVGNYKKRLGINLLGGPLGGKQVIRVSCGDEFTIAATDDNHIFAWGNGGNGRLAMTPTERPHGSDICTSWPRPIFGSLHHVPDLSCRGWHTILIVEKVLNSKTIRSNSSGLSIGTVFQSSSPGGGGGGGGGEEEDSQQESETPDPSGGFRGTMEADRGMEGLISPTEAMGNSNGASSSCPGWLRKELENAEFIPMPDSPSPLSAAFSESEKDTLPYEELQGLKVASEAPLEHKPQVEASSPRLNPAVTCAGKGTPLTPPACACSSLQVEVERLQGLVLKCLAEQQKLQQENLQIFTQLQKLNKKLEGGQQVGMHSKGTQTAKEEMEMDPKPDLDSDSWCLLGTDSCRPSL
The method, boiled down: as §1

Another test has as its target T9, PIP5K1A (Homo sapiens, UniProt Q99755).
T9 construct: endogenous in cells; host or cells: PANC-1 cell lysate
The note with it: ATP. Put shortly:
as §1

The target of another test is T10, TNK1 (Homo sapiens, UniProt Q13470).
T10 construct: endogenous in cells; host or cells: PANC-1 cell lysate
The settings on record: Lys1. The method, boiled down: as §1

Another test addresses T11, AKT1 (Homo sapiens, UniProt P31749).
T11 construct: endogenous in cells; host or cells: PANC-1 cell lysate
The settings on record: ATP Loop. Put shortly: as §1

Another test concerns the target T12, RIPK2 (Homo sapiens, UniProt O43353).
T12 construct: endogenous in cells; host or cells: PANC-1 cell lysate
The note with it: Lys2. The method, boiled down:
as §1

The next test deals with T13, PAK2 (Homo sapiens, UniProt Q13177).
T13 construct: endogenous in cells; host or cells: PANC-1 cell lysate
The method, boiled down: as §1

T7 sequence (P06493 whole entry): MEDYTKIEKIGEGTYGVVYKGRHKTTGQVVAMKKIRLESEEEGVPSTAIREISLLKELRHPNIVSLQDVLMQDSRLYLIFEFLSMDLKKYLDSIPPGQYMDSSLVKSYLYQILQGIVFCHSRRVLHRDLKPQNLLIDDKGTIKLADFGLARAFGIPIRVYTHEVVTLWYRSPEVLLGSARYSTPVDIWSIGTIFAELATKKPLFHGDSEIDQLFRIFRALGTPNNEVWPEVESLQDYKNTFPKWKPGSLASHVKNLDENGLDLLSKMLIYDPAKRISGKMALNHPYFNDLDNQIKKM
T13 sequence (Q13177 whole entry): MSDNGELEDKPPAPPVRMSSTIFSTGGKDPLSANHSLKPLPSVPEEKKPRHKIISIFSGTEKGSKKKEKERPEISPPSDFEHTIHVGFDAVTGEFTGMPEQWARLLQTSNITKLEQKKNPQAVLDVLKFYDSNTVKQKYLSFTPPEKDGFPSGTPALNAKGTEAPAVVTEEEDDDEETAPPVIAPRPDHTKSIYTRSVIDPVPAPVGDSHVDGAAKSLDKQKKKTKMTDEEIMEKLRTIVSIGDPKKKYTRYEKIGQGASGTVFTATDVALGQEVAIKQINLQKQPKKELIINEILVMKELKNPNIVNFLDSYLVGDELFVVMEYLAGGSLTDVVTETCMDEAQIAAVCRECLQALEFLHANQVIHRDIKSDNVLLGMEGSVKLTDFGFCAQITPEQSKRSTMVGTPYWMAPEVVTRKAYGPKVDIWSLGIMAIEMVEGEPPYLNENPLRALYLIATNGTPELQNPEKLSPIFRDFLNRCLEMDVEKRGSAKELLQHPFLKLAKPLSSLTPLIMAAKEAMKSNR
T5 sequence (O14965 whole entry): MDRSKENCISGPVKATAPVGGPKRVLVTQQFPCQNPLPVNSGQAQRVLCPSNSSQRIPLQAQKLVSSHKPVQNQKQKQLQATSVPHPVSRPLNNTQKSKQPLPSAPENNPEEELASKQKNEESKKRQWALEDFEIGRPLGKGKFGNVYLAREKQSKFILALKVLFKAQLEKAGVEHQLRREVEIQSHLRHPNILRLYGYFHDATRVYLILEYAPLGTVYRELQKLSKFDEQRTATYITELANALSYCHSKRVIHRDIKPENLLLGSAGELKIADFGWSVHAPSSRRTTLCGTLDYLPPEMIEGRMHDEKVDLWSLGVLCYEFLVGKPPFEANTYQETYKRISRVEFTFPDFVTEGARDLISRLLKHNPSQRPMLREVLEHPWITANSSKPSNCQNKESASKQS
T3 sequence (P19525 whole entry): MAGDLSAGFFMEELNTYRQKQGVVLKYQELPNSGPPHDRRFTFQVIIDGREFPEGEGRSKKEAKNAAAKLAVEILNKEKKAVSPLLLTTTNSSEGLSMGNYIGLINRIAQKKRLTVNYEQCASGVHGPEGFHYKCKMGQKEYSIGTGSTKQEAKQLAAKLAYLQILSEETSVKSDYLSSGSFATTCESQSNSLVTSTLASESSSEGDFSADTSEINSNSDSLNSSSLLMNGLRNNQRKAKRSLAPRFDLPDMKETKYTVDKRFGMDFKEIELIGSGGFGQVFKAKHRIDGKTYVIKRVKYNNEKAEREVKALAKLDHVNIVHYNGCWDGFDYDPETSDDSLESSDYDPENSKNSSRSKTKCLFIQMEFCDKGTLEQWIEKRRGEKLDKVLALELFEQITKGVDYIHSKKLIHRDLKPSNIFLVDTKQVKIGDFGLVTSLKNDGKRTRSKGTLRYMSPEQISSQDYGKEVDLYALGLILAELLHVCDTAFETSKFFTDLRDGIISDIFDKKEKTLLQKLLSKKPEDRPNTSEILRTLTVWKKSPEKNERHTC
T12 sequence (O43353 whole entry): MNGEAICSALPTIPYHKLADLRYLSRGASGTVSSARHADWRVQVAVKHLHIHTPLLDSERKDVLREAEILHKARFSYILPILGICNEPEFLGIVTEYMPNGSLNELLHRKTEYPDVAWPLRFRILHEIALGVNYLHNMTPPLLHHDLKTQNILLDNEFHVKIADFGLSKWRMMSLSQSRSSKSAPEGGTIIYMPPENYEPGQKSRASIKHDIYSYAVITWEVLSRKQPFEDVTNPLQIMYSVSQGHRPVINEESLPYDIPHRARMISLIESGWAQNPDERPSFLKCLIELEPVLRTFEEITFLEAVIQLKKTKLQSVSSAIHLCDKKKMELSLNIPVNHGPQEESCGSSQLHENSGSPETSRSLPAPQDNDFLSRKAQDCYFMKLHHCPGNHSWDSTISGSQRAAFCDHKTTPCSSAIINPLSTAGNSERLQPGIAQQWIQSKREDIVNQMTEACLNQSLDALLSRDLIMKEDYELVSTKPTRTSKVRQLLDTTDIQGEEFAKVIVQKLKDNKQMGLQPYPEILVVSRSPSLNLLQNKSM
T6 sequence (Q15349 whole entry, the tested form may be a part): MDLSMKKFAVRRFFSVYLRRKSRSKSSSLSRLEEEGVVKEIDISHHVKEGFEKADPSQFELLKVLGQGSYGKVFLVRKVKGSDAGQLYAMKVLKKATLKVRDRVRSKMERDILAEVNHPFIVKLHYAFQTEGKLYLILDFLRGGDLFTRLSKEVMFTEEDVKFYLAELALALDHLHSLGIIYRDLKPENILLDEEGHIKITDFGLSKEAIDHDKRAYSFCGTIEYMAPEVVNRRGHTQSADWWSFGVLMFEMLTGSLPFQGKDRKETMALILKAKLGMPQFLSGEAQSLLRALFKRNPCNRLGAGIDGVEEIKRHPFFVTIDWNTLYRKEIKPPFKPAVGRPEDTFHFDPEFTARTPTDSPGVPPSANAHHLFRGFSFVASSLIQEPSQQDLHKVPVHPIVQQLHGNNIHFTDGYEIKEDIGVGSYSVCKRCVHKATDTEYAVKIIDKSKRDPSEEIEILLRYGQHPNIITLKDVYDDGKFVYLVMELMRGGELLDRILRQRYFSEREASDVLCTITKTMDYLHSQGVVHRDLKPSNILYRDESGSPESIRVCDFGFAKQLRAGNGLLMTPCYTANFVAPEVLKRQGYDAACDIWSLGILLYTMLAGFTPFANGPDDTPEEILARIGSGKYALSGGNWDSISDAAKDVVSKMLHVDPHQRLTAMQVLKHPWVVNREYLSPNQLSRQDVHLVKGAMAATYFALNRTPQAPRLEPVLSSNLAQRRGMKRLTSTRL
T1 sequence (Q5TCX8 whole entry): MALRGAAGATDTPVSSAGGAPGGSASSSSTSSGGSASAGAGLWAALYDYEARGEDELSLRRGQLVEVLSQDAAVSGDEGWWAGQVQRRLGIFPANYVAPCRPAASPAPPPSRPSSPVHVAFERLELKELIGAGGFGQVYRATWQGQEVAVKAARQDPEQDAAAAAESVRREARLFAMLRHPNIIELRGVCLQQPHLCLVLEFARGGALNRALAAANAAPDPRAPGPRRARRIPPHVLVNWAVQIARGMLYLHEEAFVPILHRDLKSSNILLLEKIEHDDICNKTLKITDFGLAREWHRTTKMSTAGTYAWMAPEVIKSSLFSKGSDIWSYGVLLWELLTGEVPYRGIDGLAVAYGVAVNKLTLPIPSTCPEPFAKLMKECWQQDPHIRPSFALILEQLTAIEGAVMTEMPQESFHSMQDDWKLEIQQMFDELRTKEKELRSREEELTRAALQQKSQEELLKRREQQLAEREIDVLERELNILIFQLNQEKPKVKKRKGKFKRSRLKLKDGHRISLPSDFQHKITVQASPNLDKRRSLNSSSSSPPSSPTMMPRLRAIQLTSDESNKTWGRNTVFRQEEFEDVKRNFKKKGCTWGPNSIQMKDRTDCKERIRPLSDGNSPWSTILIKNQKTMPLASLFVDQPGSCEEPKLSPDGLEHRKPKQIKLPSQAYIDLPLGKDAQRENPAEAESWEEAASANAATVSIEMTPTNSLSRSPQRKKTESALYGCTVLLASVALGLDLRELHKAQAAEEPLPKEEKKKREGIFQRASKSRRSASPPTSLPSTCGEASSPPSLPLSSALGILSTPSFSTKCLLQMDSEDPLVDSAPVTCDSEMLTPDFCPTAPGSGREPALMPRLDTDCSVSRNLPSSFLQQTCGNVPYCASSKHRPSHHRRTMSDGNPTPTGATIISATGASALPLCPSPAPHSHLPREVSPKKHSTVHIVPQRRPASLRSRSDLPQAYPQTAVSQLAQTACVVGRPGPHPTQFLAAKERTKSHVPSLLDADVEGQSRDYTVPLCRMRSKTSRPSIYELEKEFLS
T9 sequence (Q99755 whole entry): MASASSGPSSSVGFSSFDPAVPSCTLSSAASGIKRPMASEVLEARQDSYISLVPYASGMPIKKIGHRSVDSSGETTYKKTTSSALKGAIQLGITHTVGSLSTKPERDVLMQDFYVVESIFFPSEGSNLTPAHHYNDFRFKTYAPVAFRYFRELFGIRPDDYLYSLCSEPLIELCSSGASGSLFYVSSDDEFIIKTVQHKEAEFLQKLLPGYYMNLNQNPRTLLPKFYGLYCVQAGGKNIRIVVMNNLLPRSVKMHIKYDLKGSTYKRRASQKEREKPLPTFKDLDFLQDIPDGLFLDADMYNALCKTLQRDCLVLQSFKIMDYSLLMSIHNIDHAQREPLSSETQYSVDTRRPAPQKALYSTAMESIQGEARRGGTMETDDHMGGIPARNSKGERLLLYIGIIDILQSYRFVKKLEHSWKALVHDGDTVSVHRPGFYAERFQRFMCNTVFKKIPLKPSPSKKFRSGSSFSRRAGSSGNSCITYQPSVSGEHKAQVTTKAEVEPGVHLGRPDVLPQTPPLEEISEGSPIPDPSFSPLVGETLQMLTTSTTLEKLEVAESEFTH

What is called inhibition is how much of the control response was suppressed. Read a low inhibition as a response near the control. Regarding `Cn1cc(-c2cnc3ccc(NC(=O)Nc4ccc(F)c(C(F)(F)F)c4)cc3n2)cn1` [51-106, 1-(4-Fluoro-3-(trifluoromethyl)phenyl)-3-(3-(1-methyl-1H-pyrazol-4-yl)quinoxalin-6-yl)urea], the inhibition at 5 µM against MLK4 is no more than 0%; against MAST4, no more than 0%; against PKR (ATP Loop, IGDFGLVTSLKNDGKR), no more than 0%; against PKR (Lys2, DLKPSNIFLVDTK), 18.7%; on PCTAIRE2, 9.7%; against AurA (Lys1, […]), no more than 0%. In addition, the inhibition at 5 µM at RSK3 domain1 is no more than 0%; at CDC2 (Lys1, TTGQVVAMKK), 20.3%; at CDC2 (Lys2, DLKPQNLLIDDK), no more than 0%; at CDC2 (Protein Kinase Domain, KPLFHGDSEIDQLFR), no more than 0%; against NEK9 (ATP Loop, LGDYGLAKK), no more than 0%; on NEK9 (Lys1, RTEDDSLVVWKEVDLTR), 0.6%. In addition, the inhibition at 5 µM against NEK9 (Lys2, DIKTLNIFLTK) is 13.8%; on PIP5K1A it was 8.7%; against TNK1 it was 1.9%; at AKT1, no more than 0%; against RIPK2 it was no more than 0%; at PAK2 (Lys1, IGQGASGTVFTATDVALGQEVAIKQINLQK), 6.9%. Further, testing at 5 µM on PAK2 (Other, KNPQAVLDVLKFYDSNTVK) gave an inhibition of 0.8%. Further, the “% Inhibition” value at AurA (5 µM, Lys2, DIKPENLLLGSAGELK) is “NB (NB = No Binding (≤ 0))”; in the test with PKD1, PKD2, “NB (NB = No Binding (≤ 0))”; with MER, TYRO3, “NB (NB = No Binding (≤ 0))”.
